Results published in patent US12617752B2, “Rapidly metabolized lipid compound” (Beijing Jitai Life Sciences Ltd, priority 2023, dated 2026).

What was measured:
[1] = Particle size and PDI of lipid nanoparticles by dynamic light scattering; assay type: physicochemical; settings: lipid nanoparticles with luciferase mRNA; ionizable lipid/cholesterol/DSPC/DMG-PEG2000 50/38.5/10/1.5 mol%
Outline: (§1)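 LNPs of ionizable lipid/cholesterol/phospholipid/PEG-lipid (50/38.5/10/1.5 mol%, N/P 6) were formed by microfluidic mixing with mRNA in pH 4.5 acetate, then buffer-exchanged by ultrafiltration. Size and PDI were measured by DLS. Encapsulation came from RiboGreen fluorescence (485/528 nm) in TE pH 7.5, with and without 0.5% Triton at 37 °C for 30 min.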

[2] = Clearance rate of ionizable lipids in vivo (liver content by LC-MS/MS); settings: C57 WT female mice, tail vein, 100 μL unloaded LNP (0.1 mg/mL)
Method: The 6-8 weeks old C57 WT female mice (n=3) were injected by tail vein administration of 100 μL of unloaded LNP (0.1 mg/mL) formed from the ionizable lipid, cholesterol, DSPC, and DMG-PEG 2000 at a ratio of 50:38.5:10:1.5. The experimental animals were executed by removing the cervical vertebrae and dissected for the liver at 24 h and 72 h after administration, respectively, while the same batch of non-dosed experimental animal livers were used as a blank control group. Water was added to the liver sample for homogenization, and the protein was precipitated. The content of the ionizable lipid in the sample was quantitatively analyzed using LC-MS/MS in comparison to a calibration standard prepared from matched blank liver tissues.

C57BL/6 mice = experiment: In vivo delivery of luciferase mRNA lipid nanoparticles in mice (bioluminescence imaging); settings: intravenous, single dose 0.5 mg/kg luciferase mRNA
Outline: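 Female C57BL/6 mice, 6-8 weeks old, received luciferase mRNA lipid nanoparticles as a single intravenous dose of 0.5 mg/kg mRNA. At 6 h, D-luciferin given intraperitoneally; 10 min later, mice were imaged under isoflurane anaesthesia. Values are group mean fluorescence intensity and total photon count.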

[3] = Encapsulation efficiency of lipid nanoparticles (Quant-it RiboGreen RNA Assay); assay type: physicochemical; settings: lipid nanoparticles with luciferase mRNA
Outline: as §1

Row | Structure (SMILES) | Particle size (nm) [1] [nm] | Particle-size distribution (PDI) [1] | Percentage of cationic lipids in the liver in the total dose, 24 h after administration (%) [2] [%] | Percentage of cationic lipids in the liver in the total dose, 72 h after administration (%) [2] [%] | Total photon count in vivo at 6 hours after administration (Total Flux) (C57BL/6 mice) | Encapsulation efficiency (%) [3] [%]
1 | CCCCCCCCCOC(=O)CCCCCCCN(CCO)CCCCCCC(C)(C)C(=O)OC(CCCCCCCC)CCCCCCCC [1a] | 113.08 | 0.022 | <1 | 0 | 3.52E+10 | 94.61
2 | CCCCCCCCCCOC(=O)OCCCCCCN(CCO)CCCCCC(C)(C)COC(=O)CCC(CCCCCC)CCCCCC [26b] | 113.77 | 0.14 | 8 | <1 | 6.53E+10 | 94.58
3 | CCCCCCCCCC(=O)OCC(C)(C)CCCCCN(CCCCO)CCCCCCCC(=O)OC(CCCCCCCC)CCCCCCCC [3b] | 102.32 | 0.015 | 12 ± 3.8 | <1 | 1.41E+11 | 74.43
4 | CCCCC#CCCCOC(=O)CCCCCCCN(CCO)CCCCCCC(C)(C)C(=O)OC(CCCCCCCC)CCCCCCCC [56a] | 86.37 | 0.09 | <1 | <1 | 3.23E+10 | 82.84
5 | CCCCCCCCCOC(=O)OCCCCCCN(CCO)CCCCCCC(C)(C)C(=O)OC(CCCCCCCC)CCCCCCCC [30a] | 107.40 | 0.12 | 4 | <2 | 8.32E+10 | 86.94
6 | CCCCCCCCCC(=O)OCC(C)(C)CCCCCN(CCO)CCCCCCCC(=O)OCCC(CCCCCC)CCCCCC [10b] | 114.72 | 0.052 | 5 ± 3.1 | <1 | 3.15E+10 | 72.72
7 | CCCCCCCCCC(=O)OCC(C)(C)CCCCCN(CCO)CCCCCCCC(=O)OCC(CCCCCCC)CCCCCCC [13b] | 99.02 | 0.018 | 8 ± 2.7 | <1 | 1.81E+11 | 89.27
8 | CCCCCCCCCC(=O)OCC(C)(C)CCCCCN(CCO)CCCCCCCC(=O)OC(CCCCCCCC)CCCCCCCC [1b] | 88.59 | 0.031 | 15 ± 4.2 | <1 | 9.34E+10 | 89.89
9 | CCCCCCCCCCC(=O)OCC(C)(C)CCCCCN(CCCCCCCC(=O)OC(CCCCCCCCC)CCCCCCCCC)C(=O)SCCCN(C)C [39b] | 102.67 | 0.07 | <1 | <1 | 7.16E+10 | 93.58
